Data reported in the supplement of paper PMC10307832.

Experiments:
Assay in all cases: relative viability (nuclei count vs DMSO), 5 days (fraction); higher = more cells survive
GSK-J4 + Alpelisib = compound: CCOC(=O)CCNc1cc(N2CCc3ccccc3CC2)nc(-c2ccccn2)n1 [GSK-J4] + Cc1nc(NC(=O)N2CCC[C@H]2C(N)=O)sc1-c1ccnc(C(C)(C)C(F)(F)F)c1 [Alpelisib] (partner 2 µM)
Method in brief: (§1)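 Relative viability divides the nuclei count in treated wells by that in vehicle wells. Lung cancer cell lines were seeded in 1536-well plates, dosed by pin tool the next day, and fixed and stained after 5 days in one step with final 0.05% Triton X-100, 1% formaldehyde and 1 ug/ml Hoechst. Dosing was a single drug or a fixed anchor-drug dose plus five library-drug doses (not always all listed) in √10 steps, and values are medians of duplicate plates imaged at 4×.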

GSK-J4 + Dasatinib = compound: CCOC(=O)CCNc1cc(N2CCc3ccccc3CC2)nc(-c2ccccn2)n1 [GSK-J4] + Cc1nc(Nc2ncc(C(=O)Nc3c(C)cccc3Cl)s2)cc(N2CCN(CCO)CC2)n1 [Dasatinib] (partner 0.075 µM)
Method in brief: as §1

AZ3146 + Foretinib = compound: CN1CCC(CC1)OC2=CC(=C(C=C2)NC3=NC=C4C(=N3)N(C(=O)N4C)C5CCCC5)OC [AZ3146] + COc1cc2c(Oc3ccc(NC(=O)C4(C(=O)Nc5ccc(F)cc5)CC4)cc3F)ccnc2cc1OCCCN1CCOCC1 [Foretinib] (partner 0.25 µM)
Method in brief: as §1

AZ3146 + Crizotinib = compound: CN1CCC(CC1)OC2=CC(=C(C=C2)NC3=NC=C4C(=N3)N(C(=O)N4C)C5CCCC5)OC [AZ3146] + C[C@@H](Oc1cc(-c2cnn(C3CCNCC3)c2)cnc1N)c1c(Cl)ccc(F)c1Cl [Crizotinib] (partner 1 µM)
Method in brief: as §1

| Cell Line | relative viability (GSK-J4 + Alpelisib; first compound 0.5 µM) | relative viability (GSK-J4 + Alpelisib; first compound 1.581 µM) | relative viability (GSK-J4 + Alpelisib; first compound 5 µM) | relative viability (GSK-J4 + Alpelisib; first compound 15.81 µM) | relative viability (GSK-J4 + Alpelisib; first compound 50 µM) | relative viability (GSK-J4 + Dasatinib; first compound 0.5 µM) | relative viability (GSK-J4 + Dasatinib; first compound 1.581 µM) | relative viability (GSK-J4 + Dasatinib; first compound 5 µM) | relative viability (GSK-J4 + Dasatinib; first compound 15.81 µM) | relative viability (GSK-J4 + Dasatinib; first compound 50 µM) | relative viability (AZ3146 + Foretinib; first compound 0.08 µM) | relative viability (AZ3146 + Foretinib; first compound 0.253 µM) | relative viability (AZ3146 + Foretinib; first compound 0.8 µM) | relative viability (AZ3146 + Foretinib; first compound 2.53 µM) | relative viability (AZ3146 + Foretinib; first compound 8 µM) | relative viability (AZ3146 + Crizotinib; first compound 0.08 µM) | relative viability (AZ3146 + Crizotinib; first compound 0.253 µM) | relative viability (AZ3146 + Crizotinib; first compound 0.8 µM) | relative viability (AZ3146 + Crizotinib; first compound 2.53 µM) | relative viability (AZ3146 + Crizotinib; first compound 8 µM) |
| --- | --- | --- | --- | --- | --- | --- | --- | --- | --- | --- | --- | --- | --- | --- | --- | --- | --- | --- | --- | --- |
| LXF-289 | 0.971 | 0.957 | 1.04 | 0.991 | 0.956 | 0.21 | 0.181 | 0.0979 | 0.121 | 0.177 | 0.905 | 0.989 | 0.952 | 0.978 | 0.914 | 0.848 | 0.886 | 0.795 | 0.781 | 0.444 |
| NCI-H23 | 0.781 | – | 0.892 | 0.605 | 0.604 | 0.872 | 0.73 | 0.723 | 0.723 | 0.617 | 1.02 | 1.08 | 1.19 | 1.01 | 0.612 | 0.398 | 0.515 | 0.516 | 0.425 | 0.305 |
| NCI-H322M | 0.901 | 0.718 | 0.734 | 0.747 | 0.733 | 0.269 | 0.19 | 0.237 | 0.23 | 0.278 | 0.893 | 0.943 | 0.837 | 0.738 | 0.642 | 0.683 | 0.876 | 0.9 | 0.763 | 0.6 |
| NCI-H358 | 0.868 | 0.639 | 0.98 | 0.876 | 0.773 | 0.201 | 0.132 | 0.139 | 0.152 | 0.158 | 0.608 | 0.637 | 0.554 | 0.504 | 0.212 | 0.587 | 0.616 | 0.425 | 0.398 | 0.177 |
| NCI-H441 | 0.741 | 0.521 | 0.475 | 0.736 | 0.57 | 0.537 | 0.537 | 0.735 | 0.516 | 0.358 | 0.92 | 0.949 | 1.06 | 1 | 1.07 | 0.646 | 0.658 | 0.774 | 0.773 | 0.658 |
| NCI-H460 | 0.54 | 0.377 | 0.554 | 0.456 | 0.433 | 0.524 | 0.445 | 0.471 | 0.37 | 0.363 | 1.01 | 1.06 | 0.92 | 0.874 | 0.312 | 0.729 | 0.844 | 0.664 | 0.11 | 0.0243 |
| NCI-H520 | 0.899 | 0.781 | 1.2 | 0.868 | 0.834 | 0.217 | 0.191 | 0.154 | 0.125 | 0.184 | 0.566 | 0.867 | 0.58 | 0.91 | 0.83 | 0.691 | 0.959 | 0.613 | 0.486 | 0.406 |
| NCI-H596 | 0.479 | 0.503 | 0.525 | 0.457 | 0.477 | 0.562 | 0.611 | 0.645 | 0.497 | 0.599 | 0.793 | 0.714 | 0.999 | 0.691 | 0.881 | 1.02 | 0.947 | 1.02 | 1.02 | 1.01 |
| NCI-H647 | 1.22 | 1.03 | 0.927 | 1.05 | 0.975 | 0.2 | 0.164 | 0.0733 | 0.285 | 0.131 | 1.01 | 1.21 | 0.857 | 1.16 | 1.21 | 0.983 | 1.12 | 0.978 | 0.763 | 0.201 |
| NCI-H650 | 0.926 | 1.11 | 0.729 | 1.07 | 0.767 | 0.512 | 0.507 | 0.277 | 0.406 | 0.324 | 0.812 | 0.996 | 0.961 | 1.03 | 1.18 | 0.571 | 0.721 | 0.827 | 0.781 | 0.542 |
| NCI-H661 | 0.727 | 0.602 | 0.578 | 0.5 | 0.53 | 0.862 | 0.755 | 0.636 | 0.641 | 0.649 | 0.98 | 1.03 | 0.97 | 0.982 | 0.764 | 0.979 | 1.14 | 1.03 | 1.11 | 0.814 |
| NCI-H727 | 0.549 | – | 0.894 | 0.621 | 0.264 | 0.338 | 0.305 | 0.522 | 0.298 | 0.223 | 0.952 | 0.967 | 0.975 | 0.981 | 0.86 | 0.813 | 0.796 | 0.8 | 0.586 | 0.365 |
| NCI-H838 | 1.02 | 0.927 | – | 0.962 | 0.905 | 0.325 | 0.24 | 0.23 | 0.266 | 0.275 | 1.06 | 1.09 | 0.954 | 1.03 | 0.788 | 0.797 | 0.798 | 0.656 | 0.613 | 0.281 |
| NCI-H1355 | 0.761 | 0.741 | 0.857 | 0.762 | 0.757 | 0.749 | 0.654 | 0.342 | 0.538 | 0.675 | 0.974 | 0.968 | 0.936 | 1.04 | 1.05 | 1.07 | 1.04 | 1.1 | 1.04 | 1.08 |
| NCI-H1437 | 0.904 | 0.979 | 0.908 | 0.873 | 0.428 | 0.426 | 0.438 | 0.353 | 0.307 | 0.126 | 1.24 | 1.31 | 1.26 | 1.35 | 1.26 | 0.875 | 0.906 | 0.853 | 1.02 | 0.863 |
| NCI-H1563 | 0.885 | 0.85 | 0.872 | 0.891 | 1.02 | 0.51 | 0.695 | 0.461 | 0.42 | 0.417 | 0.901 | 1.07 | 0.903 | 0.901 | 0.864 | 0.874 | 0.896 | 0.954 | 0.802 | 0.777 |
| NCI-H1651 | 0.888 | 0.814 | 0.957 | 0.93 | 0.892 | 0.537 | 0.306 | 0.367 | 0.443 | 0.477 | 0.729 | 0.726 | 0.809 | 0.849 | 0.836 | 0.671 | 0.811 | 0.912 | 0.844 | 0.871 |
| NCI-H1666 | 0.881 | – | 1.08 | 0.985 | 0.508 | 0.774 | 0.879 | 0.526 | 0.802 | 0.536 | 0.964 | 0.994 | 1.02 | 1.05 | 0.839 | 1.08 | 1.01 | 1.08 | 0.934 | 0.778 |
| NCI-H1734 | 0.679 | 0.597 | 0.568 | 0.671 | 0.591 | 0.405 | 0.454 | 0.378 | 0.396 | 0.468 | 0.811 | 0.859 | 0.885 | 0.853 | 0.705 | 0.678 | 0.752 | 0.655 | 0.697 | 0.598 |
| NCI-H1755 | 0.897 | 0.763 | 1.02 | 0.915 | 0.852 | 0.367 | 0.406 | 0.246 | 0.364 | 0.361 | 0.917 | 0.935 | 0.859 | 0.915 | 0.97 | 0.868 | 0.888 | 0.855 | 0.928 | 0.816 |
| NCI-H1915 | 0.972 | 0.97 | 1.04 | 0.99 | 1.01 | 0.342 | 0.36 | – | 0.316 | 0.352 | 0.92 | 1.12 | 1.1 | 1.22 | 1.16 | 0.878 | 0.905 | 0.852 | 0.896 | 0.82 |
| NCI-H1944 | 0.833 | 0.709 | 0.964 | 0.897 | 0.822 | 0.225 | 0.223 | 0.179 | 0.196 | 0.184 | 0.664 | 0.88 | 0.985 | 0.943 | 0.99 | – | 0.977 | 1.09 | 1.13 | 1.1 |
| NCI-H1975 | 0.615 | 0.613 | – | 0.678 | 0.837 | 0.335 | 0.361 | 0.253 | 0.267 | 0.284 | 0.915 | 0.886 | 1.04 | 0.977 | 0.362 | 0.862 | 1.07 | 0.834 | 0.406 | 0.299 |
| NCI-H1993 | 0.657 | 0.643 | 0.702 | 0.667 | 0.621 | 0.613 | 0.649 | 0.716 | 0.52 | 0.43 | 0.866 | 0.776 | 0.771 | 0.834 | 0.834 | 0.876 | 0.847 | 0.813 | 0.879 | 0.84 |
| NCI-H2009 | 1.1 | 1.16 | 1.08 | 1.1 | 0.966 | 0.298 | 0.276 | 0.166 | 0.265 | 0.189 | 1.11 | 1.28 | 1.26 | 1.22 | 0.957 | 0.978 | 1.12 | 1.04 | 0.87 | 0.885 |
| NCI-H2023 | 0.604 | 0.471 | 0.75 | 0.582 | 0.583 | 0.49 | – | 0.529 | 0.48 | 0.428 | 0.783 | 0.788 | 0.774 | 0.949 | 0.227 | 0.592 | 0.636 | 0.485 | 0.407 | 0.449 |
| NCI-H2085 | 0.894 | 0.863 | 0.888 | 0.898 | 0.789 | 0.288 | 0.273 | 0.388 | 0.223 | 0.377 | 0.898 | 1 | 0.977 | 1 | 0.868 | 0.837 | 0.998 | 0.933 | 0.824 | 0.658 |
